The assay has as its target T1, ACC (acetyl CoA carboxylase) purified from liver of male SD rat (Rattus norvegicus, UniProt P11497).
T1 construct: applied to a monomeric avidin sepharose column, and washed with buffer B. The ACC was eluted with buffer B containing 2 mM d-biotin; from tissue; host or cells: liver of male SD rat
Nature of the assay: Measurement of ACC inhibition activity ([14C]-NaHCO3 incorporation). Format: biochemical. The following applies: ACC inhibition activity rate at 1 μM, read-out: ACC Inhibition (%). The method, then:
A male SD rat was deprived of food for two days and then fed a high-sucrose diet (component) for two days. While anesthetized with ether, the descending vena cava was cut upon, the animal was bled, and the liver was rapidly recovered. In an ice-cooled buffer solution A (225 mM mannitol, 75 mM sucrose, 10 mM Tris-HCl (pH 7.5), 0.05 mM EDTA, 5 mM potassium citrate, 2.5 mM MgCl2, 10 mg/L pepstatin A, 10 mg/L leupeptin, 1 mM PMSF), the liver was homogenized with a polytone homogenizer. A quantity of buffer A nine times the weight of the liver was added, the mixture was centrifuged for 10 minutes at 1,000 g, the supernatant was recovered, and the supernatant was centrifuged for another 10 minutes at 17,000 g.
Ammonium sulfate was added to 35 percent saturation to the obtained supernatant. The mixture was stirred for 45 minutes and then centrifuged for 10 minutes at 17,000 g. Buffer solution B (100 mM Tris-HCl (pH 7.5), 500 mM NaCl, 1 mM EDTA, 0.1 mM DTT, 10 percent glycerol, 10 mg/L pepstatin A, 10 mg/L leupeptin, 0.5 mM PMSF) was added to the obtained precipitate and dissolved. The solution was then centrifuged for 20 minutes at 40,000 g. The supernatant was dialyzed overnight against buffer C (100 mM Tris-HCl (pH 7.5), 500 mM NaCl, 1 mM EDTA, 0.1 mM DTT, 5 percent glycerol).
The dialyzed supernatant was passed through a […], applied to a monomeric avidin sepharose column, and washed with buffer B. The ACC was eluted with buffer B containing 2 mM d-biotin.
(2 Measurement of ACC Inhibition Activity)
The compounds synthesized in the above-described embodiments were dissolved in DMSO and charged to glass vials. 250 μL of ACC-containing reaction solution (40 mM Tris-HCl (pH 7.5), 40 mM MgCl2, 40 mM sodium citrate, and 2 mM DTT) was added. The mixture was heated for 30 minutes at 37° C. in a thermostatic chamber and then cooled with ice. To reaction solution 1 was added 250 μL of reaction solution 2 containing [14C]—NaHCO3 (40 mM Tris-HCl (pH 7.5), 2 mM DTT, 8 mM ATP, 0.5 mM acetyl CoA) and the mixture was heated for 10 minutes at 37° C. 100 μL of 1N HCl was added to stop the reaction. Water in the reaction solution was removed with a centrifugal evaporator, a scintillator was added, the solid component was dissolved, and the 14C radioactivity was measured with a liquid scintillation counter. The ACC inhibition activity of each compound was calculated from the following equation and converted to the ACC inhibition activity rate (%) at 1 μM.
ACC inhibition rate (%)=(1−(a−c)/(b−c))×100 a. Radioactivity when test drug added b: Radioactivity when test drug not added c: Blank* *Reaction solution 1 to which 100 μL of 1N HCl was added before mixing reaction solution 1 and reaction solution 2

Where [1] appears, read: Table 4-IV, Mode 4 benzenediamine compounds (numbers = x-IV).
Setting [2] is: Table 2-III, Mode 3 acetylene/oxadiazole/thiazole compounds (numbers = x-III).
[3] abbreviates: Table 3-II, Mode 2 benzimidazole compounds (numbers = x-II).
The mark [4] stands for this setting: Table 3-I, Mode 1 quinoline compounds (numbers = x-I).
Setting [5] is: Table 4-A, further compounds of Modes 2 and 3.

Structures are written as SMILES. Read-outs that look alike come from different tables or passages of the source.

Here are results for 41 molecules from patent US7402696B2, “Benzene compounds” (Ajinomoto Co., Inc., priority 2004, dated 2008).

As usually defined, the inhibition is how much of the control response was suppressed. With `CCCCCC(=O)NS(=O)(=O)c1ccccc1NC(=O)c1ccc(Nc2ccc(C(F)(F)F)cc2)c(NC(=O)c2cccc(C(F)(F)F)c2)c1` [compound 27], under setting [1], the inhibition at 1 µM amounted to 91%.

On to `CC(C)CCN(C)c1ccc(-c2noc(-c3cccc(C(=O)NS(=O)(=O)c4ccccc4)c3)n2)cc1NC(=O)c1cccc(C(F)(F)F)c1` [compound 39], for which the inhibition at 1 µM under setting [1] came out at 99%.

`O=C(Nc1ccc(C#Cc2cccc(C(F)(F)F)c2)cc1)NC(Cc1ccccc1)C(=O)O` (centres unmarked) [compound 66]: the inhibition at 1 µM under setting [2] stood at 73%.

As for `CC(C)CCN(C)c1ccc(-c2noc(-c3cccc(C(=O)NS(=O)(=O)c4ccccc4)c3)n2)cc1NCc1ccc(O)cc1` [compound 95], under setting [1], the inhibition at 1 µM is 100%.

In the case of `O=C(O)c1cccc(-c2noc(-c3ccc4c(c3)nc(-c3ccccc3)n4-c3ccc(C(F)(F)F)cc3)n2)c1` [compound 8], the inhibition at 1 µM under setting [3] amounted to 57%.

With `CCCCS(=O)(=O)NC(=O)c1ccccc1NC(=O)c1ccc2nc(-c3cccc(OC(F)(F)F)c3)ccc2c1` [compound 13], the inhibition at 1 µM under setting [4] is 48%.

Turning to `CC(C)CCN(C)c1ccc(C(=O)N[C@H]2CCCC[C@H]2C(=O)NS(=O)(=O)c2ccccc2)cc1NCc1ccccc1` [Compound 144-IV], the inhibition at 1 µM under setting [1] worked out at 94%.

Turning to `O=C(O)CCC(NC(=O)OCc1ccccc1)C(=O)Nc1ccc(-c2csc(-c3ccccc3)n2)cc1` (centres unmarked) [compound 104], the inhibition at 1 µM under setting [2] was 66%.

Consider `CC(C)CCN(C)c1ccc(C(=O)NC(CC(=O)NS(=O)(=O)c2cn(C)cn2)C2CCCCC2)cc1N(C)Cc1ccccc1` (centres unmarked) [Compound 148-IV], for which, under setting [1], the inhibition at 1 µM was 63%.

Turning to `Nc1ccc(S(=O)(=O)NC(=O)c2cccc(-c3nc(-c4ccc(-c5csc(-c6ccccc6)n5)cc4)no3)c2)cc1` [Compound 132-III], under setting [5], the inhibition at 1 µM came to 96%.

As to `CCCCS(=O)(=O)NC(=O)[C@@H]1C[C@@H]2C[C@@H](C2(C)C)[C@]1(C)NC(=O)c1ccc2nc(-c3cc(C(F)(F)F)cc(C(F)(F)F)c3)ccc2c1` [compound 58], the inhibition at 1 µM under setting [4] was 46%.

Turning to `CC(C)CCN(C)c1ccc(-c2noc(-c3cccc(C(=O)NS(=O)(=O)c4ccccc4)c3)n2)cc1NCC1CCCCC1` [compound 47], under setting [1], the inhibition at 1 µM came to 100%.

With `Cc1ccccc1S(=O)(=O)NC(=O)CC(NC(=O)c1ccc(N(C)CCC(C)C)c(NCc2ccccc2[N+](=O)[O-])c1)C1CCCCC1` (centres unmarked) [compound 124], the inhibition at 1 µM under setting [1] is 64%.

In the case of `CC(C)CCN(C)c1ccc(C(=O)NC(CC(=O)NS(=O)(=O)c2ccccc2)c2ccccc2)cc1NCc1ccccc1` (centres unmarked) [compound 112], under setting [1], the inhibition at 1 µM turned out to be 75%.

As to `CC(C)CCN(C)c1ccc(-c2noc(-c3cccc(C(=O)NS(=O)(=O)c4ccccc4)c3)n2)cc1NC(C)C` [compound 48], the inhibition at 1 µM under setting [1] is 87%.

Regarding `CC(C)CCN(C)c1ccc(-c2noc(-c3cccc(C(=O)NS(=O)(=O)c4ccccc4)c3)n2)cc1NC1C=CCCC1` (centres unmarked) [compound 59], the inhibition at 1 µM under setting [1] worked out at 100%.

`CCCCS(=O)(=O)NC(=O)C1CCCCCC[C@@H]1NC(=O)c1ccc2nc(-c3cc(C(F)(F)F)cc(C(F)(F)F)c3)ccc2c1` (some centres unmarked) [compound 55]: the inhibition at 1 µM under setting [4] was 70%.

For `COc1cccc(OC)c1C(=O)NS(=O)(=O)c1cccc(-c2nc(-c3ccc(-c4csc(-c5ccccc5)n4)cc3)no2)c1` [Compound 146-III], the inhibition at 1 µM under setting [5] amounted to 79%.

As for `O=[N+]([O-])c1ccccc1S(=O)(=O)Nc1ccc(-c2csc(-c3ccccc3)n2)cc1` [compound 77], the inhibition at 1 µM under setting [2] amounted to 64%.

On to `CC(C)CCN(C)c1ccc(-c2noc(-c3cccc(C(=O)NS(=O)(=O)c4ccccc4)c3)n2)cc1[N+](=O)[O-]` [compound 37], for which, under setting [1], the inhibition at 1 µM turned out to be 86%.

In the case of `CCCCCC(=O)NS(=O)(=O)c1ccccc1NC(=O)c1ccc(Nc2ccc(C(F)(F)F)cc2)c(NC(=O)c2ccc(C(F)(F)F)cc2)c1` [compound 28], the inhibition at 1 µM under setting [1] worked out at 92%.

As for `Cc1ccccc1S(=O)(=O)NC(=O)c1cccc(-c2nc(-c3ccc(N(C)CCC(C)C)c(NC(C)c4ccccc4)c3)no2)c1` (centres unmarked) [compound 107], the inhibition at 1 µM under setting [1] was determined as 100%.

With `CCCCS(=O)(=O)NC(=O)CC(NC(=O)c1ccc2nc(-c3cc(C(F)(F)F)cc(C(F)(F)F)c3)ccc2c1)c1cccc2ccccc12` (centres unmarked) [compound 94], under setting [4], the inhibition at 1 µM came out at 50%.

As for `O=C(Nc1ccc(-c2csc(-c3ccccc3)n2)cc1)N[C@H](Cc1ccccc1)C(=O)O` [compound 103], the inhibition at 1 µM under setting [2] was 63%.

On to `CCCCCC(=O)NS(=O)(=O)c1ccccc1NC(=O)c1ccc2nc(-c3cccc(C(F)(F)F)c3)n(-c3ccccc3)c2c1` [compound 4], for which the inhibition at 1 µM under setting [3] was 54%.

For the molecule `O=[N+]([O-])c1ccccc1S(=O)(=O)Nc1cccc(-c2csc(-c3ccccc3)n2)c1` [compound 82], the inhibition at 1 µM under setting [2] came out at 63%.

As to `O=C(NS(=O)(=O)c1cccc(-c2nc(-c3ccc(-c4csc(-c5ccccc5)n4)cc3)no2)c1)c1ccccc1` [Compound 136-III], the inhibition at 1 µM under setting [5] is 94%.

For `CC(C)CCN(C)c1ccc(-c2nc(-c3cccc(C(=O)NS(=O)(=O)c4ccccc4)c3)no2)cc1[N+](=O)[O-]` [compound 51], the inhibition at 1 µM under setting [1] was determined as 76%.

For the molecule `Cc1ccccc1S(=O)(=O)NC(=O)c1cccc(-c2nc(-c3ccc(N(C)CCC(C)C)c(NCc4ccccc4[N+](=O)[O-])c3)no2)c1` [compound 129], the inhibition at 1 µM under setting [1] was found to be 100%.

On to `CC(C)c1ccc(S(=O)(=O)NC(=O)C(Cc2ccccc2)NC(=O)Nc2ccc(-c3csc(-c4ccccc4)n3)cc2)cc1` (centres unmarked) [compound 130], for which the inhibition at 1 µM under setting [2] stood at 88%.

As to `CC(C)CCN(C)c1ccc(C(=O)NC(CC(=O)NS(=O)(=O)c2ccccc2)C2CCCCC2)cc1NCc1ccccc1` (centres unmarked) [compound 54], under setting [1], the inhibition at 1 µM is 87%.

Turning to `CCCCCC(=O)NS(=O)(=O)c1ccccc1NC(=O)c1ccc2c(c1)nc(-c1cc(C(F)(F)F)cc(C(F)(F)F)c1)n2CCC(C)C` [compound 1], the inhibition at 1 µM under setting [3] worked out at 50%.

With `Nc1cccc(S(=O)(=O)Nc2ccc(-c3csc(-c4ccccc4)n3)cc2)c1` [compound 91], the inhibition at 1 µM under setting [2] came to 65%.

With `Cc1ccccc1S(=O)(=O)NC(=O)[C@@H]1CCCC[C@H]1NC(=O)c1ccc(N(C)CCC(C)C)c(NCc2ccccc2)c1` [Compound 145-IV], the inhibition at 1 µM under setting [1] turned out to be 57%.

For the molecule `Cc1ccccc1S(=O)(=O)NC(=O)CC(NC(=O)c1ccc(N(C)CCC(C)C)c(N(C)CC2CCCCC2)c1)C1CCCCC1` (centres unmarked) [compound 119], the inhibition at 1 µM under setting [1] was found to be 94%.

`O=C(O)c1ccccc1-c1csc(-c2ccc(C#Cc3cccc(C(F)(F)F)c3)cc2)n1` [compound 35]: under setting [2], the inhibition at 1 µM was determined as 50%.

Take `CC(C)CCN(C)c1ccc(-c2noc(-c3cccc(C(=O)NS(=O)(=O)c4ccccc4)c3)n2)cc1NC(=O)OCc1ccccc1` [compound 44]: the inhibition at 1 µM under setting [1] stood at 100%.

As to `O=C(O)c1ccc(-c2ccc3nc(-c4cc(C(F)(F)F)cc(C(F)(F)F)c4)ccc3c2)o1` [compound 82], the inhibition at 1 µM under setting [4] stood at 34%.

Consider `O=C(O)C1C=CC=CC1c1nc(-c2ccc(-c3csc(-c4ccc(C(F)(F)F)cc4)n3)cc2)no1` (centres unmarked) [compound 49], for which the inhibition at 1 µM under setting [2] is 62%.

In the case of `CC(C)CCN(C)c1ccc(-c2noc(-c3cccc(C(=O)NS(=O)(=O)c4ccccc4)c3)n2)cc1NCC1=CCCCC1` [compound 57], under setting [1], the inhibition at 1 µM was determined as 100%.

For `CN(c1ccc(C(=O)NC(CC(=O)NS(=O)(=O)c2ccccc2)C2CCCCC2)cc1NCCc1ccccc1)C1CC1` (centres unmarked) [Compound 157-IV], the inhibition at 1 µM under setting [1] came out at 69%.
